“And” between values parts separate entries of the source, which are not always exact repeats. Equal values may be shown once. Read-outs that look alike come from different tables or passages of the source.
How the values were obtained:
in vivo = details: mouse, ip, LD50, intraperitoneal, once a day, 7 days, mice
Enrlich carcinoma = test: Antineoplastic activity against Enrlich carcinoma (life prolongation rate); type: in vivo, 5-week-old ICR mice (male); parameters: response vs control in vivo: dose or concentration left out as unconfirmed; details: for response vs control in vivo at 2 mg/kg / response vs control in vivo at 8 mg/kg / response vs control in vivo at 16 mg/kg / response vs control in vivo / response vs control in vivo at 4 mg/kg / response vs control in vivo at 1 mg/kg: Mus musculus, ip, 1440 h, read-out: Life prolongation rate (T/C %); for response vs control in vivo at 1 mg/kg: 1.0 mg/kg/day
Description: Approximately 10^6 cells/0.2 ml of Enrlich carcinoma were inoculated into the abdominal cavity of each of the 5-week-old ICR mice (male) used for the test, and the test compounds were administered intraperitoneally to the mice of the treated group once a day for a period of 7 days, starting from the day after said inoculation. The mice of the control group was administered with a saline solution in the same way. Observation of the animals of both groups was continued for 60 days after the administration, and the life prolongation rate (T/C%, T/C×100) was determined from the average duration (days) of life of the mice of the treated group (T) and that of the mice of the control group (C).

[1] = 2.0 mg/kg/day, intraperitoneal, once a day, 7 days
[2] = 8.0 mg/kg/day, intraperitoneal, once a day, 7 days
[3] = […], intraperitoneal, once a day, 7 days
[4] = intraperitoneal, once a day, 7 days
[5] = […], intraperitoneal, (Note 1) administered for 4 days
[6] = […], intraperitoneal, (Note 2) administered for 2 days

Row | Structure (SMILES) | LD50 (in vivo) [mg/kg] | response vs control in vivo at 2 mg/kg (Enrlich carcinoma; [1]) [%] | response vs control in vivo at 8 mg/kg (Enrlich carcinoma; [2]) [%] | response vs control in vivo (Enrlich carcinoma; [4]) [%] | other results
1 | Cn1cnc2c1c(=O)n(Cc1ccccc1)c(=O)n2C [Compound 1-34, Selenium oxychloride-N--benzyltheobromine (1:2) complex] | > 16 | 122 | 187 | 159 | response vs control in vivo at 16 mg/kg (Enrlich carcinoma; [3]): 190%
2 | O=P(c1ccccc1)(c1ccccc1)c1ccccc1 [Compound 1-36, Selenium oxycloride-triphenylphosphine oxide (1:2) complex] | > 16 | 155 | – | 186 | response vs control in vivo at 16 mg/kg (Enrlich carcinoma; [3]): 197%
3 | CC(Cl)C(C)O[Se](=O)OC(C)C(C)Cl (stereo not drawn) [Compound 3-1, Di-(2-chloro-1-methylpropyl)-selenite] | 8 to 16 | 177 | 193 | 179 | response vs control in vivo at 16 mg/kg (Enrlich carcinoma; [3]): 90%
4 | O=[Se](OCC(Cl)c1ccccc1)OCC(Cl)c1ccccc1 (stereo not drawn) [Compound 3-5] | > 16 | 154 | 223 | 194 | response vs control in vivo at 16 mg/kg (Enrlich carcinoma; […], intraperitoneal, (Note 5) administered for 6 days): 167%
5 | O=[Se](OC1C2CCC(C2)C1Cl)OC1C2CCC(C2)C1Cl (stereo not drawn) [Compound 3-7, Di-(3-chloronorbonyl-2-il)selenite] | 8 to 16 | 143 | 201 | 148 | response vs control in vivo at 16 mg/kg (Enrlich carcinoma; [5]): 119%
6 | Cn1cncc1Br [Compound 1-28, Selenium oxychloride-1-methyl-5-bromoimidazole (1:2) complex] | > 16 | – | 215 | 217 | response vs control in vivo at 16 mg/kg (Enrlich carcinoma; [5]): 264%
7 | c1ccc(-c2cccnc2)cc1 [Compound 1-10, Selenium oxychloride-3-phenylpyridine (1:2) complex] | > 16 | 251 | 203 | 192 | response vs control in vivo at 16 mg/kg (Enrlich carcinoma; [3]): 199%
8 | CC(C)c1ccncc1 [Compound 1-7, Selenium oxychloride-4-isopropylpyridine (1:2) complex] | 8 to 16 | – | 256 | 222 | response vs control in vivo at 16 mg/kg (Enrlich carcinoma; [5]): 201%
9 | Cn1c(=O)c2c(ncn2Cc2ccccc2)n(C)c1=O [Compound 1-33, Selenium oxychloride-N--benzyltheophylline (1:2) complex] | > 16 | 138 | 214 | – | response vs control in vivo at 16 mg/kg (Enrlich carcinoma; [3]): 205%
10 | CN(C)c1ccncc1 [Compound 3-12, Selenium oxychloride-4-dimethylaminopyridine (1:2) complex] | > 16 | – | – | – | response vs control in vivo at 2 mg/kg (Enrlich carcinoma): 169%; response vs control in vivo at 4 mg/kg (Enrlich carcinoma): 183%; response vs control in vivo at 8 mg/kg (Enrlich carcinoma): 232%; response vs control in vivo at 16 mg/kg (Enrlich carcinoma): 190%
11 | Fc1cccnc1 [Compound 1-12, Selenium oxychloride-3-fluoropyridine (1:2) complex] | 8 to 16 | 194 | 201 | 219 | response vs control in vivo at 16 mg/kg (Enrlich carcinoma; [6]): 140%
12 | CC(C)(Cl)CO[Se](=O)OCC(C)(C)Cl [Compound 3-2, Di-(2-chloro-2-methylpropyl)-selenite] | 8 to 16 | 178 | 207 | 232 | response vs control in vivo at 16 mg/kg (Enrlich carcinoma; [6]): 63%
13 | O=[Se](OC1CCCCC1Cl)OC1CCCCC1Cl (stereo not drawn) [Compound 3-6, Di-(2-chlorcyclohexyl)selenite] | 8 to 16 | 210 | 253 | 216 | response vs control in vivo at 16 mg/kg (Enrlich carcinoma; […], intraperitoneal, (Note 3) administered for 3 days): 95%
14 | c1ccc(-c2ccncc2)cc1 [Compound 1-11, Selenium oxychloride-4-phenylpyridine (1:2) complex] | > 16 | 166 | 230 | – | response vs control in vivo at 16 mg/kg (Enrlich carcinoma; [3]): 221%
15 | CCC1(CC)CO[Se](=O)OC1 [Compound 3-9, 2,2-diethyl-1,3-propanediolselenite] | > 16 | 152 | 223 | 204 | response vs control in vivo at 16 mg/kg (Enrlich carcinoma; [3]): 194%
16 | CCCCCCC(Cl)CO[Se](=O)OCC(Cl)CCCCCC (stereo not drawn) [Compound 3-4, Di-(2-chlorooctyl)selenite] | 8 to 16 | 156 | 180 | 208 | response vs control in vivo at 16 mg/kg (Enrlich carcinoma; [5]): 53%
17 | Brc1cccnc1 [Compound 1-14, Selenium oxychloride-3-bromopyridine (1:2) complex] | 8 to 16 | 163 | 202 | 179 | response vs control in vivo at 16 mg/kg (Enrlich carcinoma; [5]): 147%
18 | c1ccncc1 [Compound 1-1, Selenium oxybromide-pyridine (1:2) complex] | 8 to 16 | – | – | – | Life prolongation rate (T/C %) (Enrlich carcinoma; mouse, in vivo): 165% and 173% and 181% and 130%
19 | CCC1CO[Se](=O)O1 (stereo not drawn) [Compound 3-8, 1,2-butanediolselenite] | > 8 | 250 | 212 | 194 | response vs control in vivo at 1 mg/kg (Enrlich carcinoma; [4]): 208%
20 | Clc1cccnc1 [Compound 1-13, Selenium oxychloride-3-chloropyridine (1:2) complex] | 8 to 16 | – | – | – | response vs control in vivo at 2 mg/kg (Enrlich carcinoma): 142%; response vs control in vivo at 4 mg/kg (Enrlich carcinoma): 172%; response vs control in vivo at 8 mg/kg (Enrlich carcinoma): 158%; response vs control in vivo at 16 mg/kg (Enrlich carcinoma): 84%
21 | Cc1ccccn1 [Compound 1-2, Selenium oxychloride-2-picoline (1:2) complex] | 8 to 16 | – | – | – | response vs control in vivo at 2 mg/kg (Enrlich carcinoma): 176%; response vs control in vivo at 4 mg/kg (Enrlich carcinoma): 169%; response vs control in vivo at 8 mg/kg (Enrlich carcinoma): 194%; response vs control in vivo at 16 mg/kg (Enrlich carcinoma): 75%
22 | CCc1ccncc1 [Compound 1-6, Selenium oxychloride-4-ethylpyridine (1:2) complex] | 8 to 16 | 173 | 244 | 209 | response vs control in vivo at 16 mg/kg (Enrlich carcinoma; [5]): 103%
23 | Clc1cncc(Cl)c1 [Compound 1-15, Selenium oxychloride-3,5-dichlorpyridine (1:2) complex] | 8 to 16 | 154 | 191 | 174 | response vs control in vivo at 16 mg/kg (Enrlich carcinoma; [5]): 162%
24 | CCC(Cl)CO[Se](=O)OCC(Cl)CC (stereo not drawn) [Compound 3-3, Di-(2-chlorobutyl)selenite] | > 8 | 205 | 212 | 230 | response vs control in vivo at 1 mg/kg (Enrlich carcinoma; [4]): 172%
25 | N#Cc1cccnc1 [Compound 2-7, Tetrachloroselenium-3-cyanopyridine (1:2) complex] | 8 to 16 | – | – | – | response vs control in vivo at 2 mg/kg (Enrlich carcinoma; 2.0 mg/kg/day, intraperitoneal, 7 days, solvent used: DMSO): 201%; response vs control in vivo at 8 mg/kg (Enrlich carcinoma; 8.0 mg/kg/day, intraperitoneal, 7 days, solvent used: DMSO): 214%; response vs control in vivo at 16 mg/kg (Enrlich carcinoma; […], intraperitoneal, 7 days, solvent used: DMSO): 67%; response vs control in vivo (Enrlich carcinoma; intraperitoneal, 7 days, solvent used: DMSO): 243%

Reference: patent US4824955A, “Selenium oxy chloride-pyridine or bipyridine complexes” (Nippon Kayaku Kabushiki Kaisha, priority 1985, dated 1989)
